Data set [1] is described as follows: Solid form characterisation of 5MeODMT benzoate lots (XRPD, DSC, TGA, 1H NMR).
Data set [2] concerns Slugs (Arion lusitanicus). The data set is classed as in vivo. From the text:
The Slug Mucosal Irritation (SMI) assay was initially developed at the Laboratory of Pharmaceutical Technology (UGent) to predict the mucosal irritation potency of pharmaceutical formulations and ingredients. The test utilizes the terrestrial slug Arion lusitanicus. The body wall of the slugs is a mucosal surface composed of different layers.
The outer single-layered columnar epithelium that contains cells with cilia, cells with micro-villi and mucus secreting cells covers the subepithelial connective tissue. Slugs that are placed on an irritating substance will produce mucus. Additionally tissue damage can be induced which results in the release of proteins and enzymes from the mucosal surface. […] A classification prediction model that distinguishes between irritation (mucus production) and tissue damage (release of proteins and enzymes) has been developed. […] A 5% shampoo dilution or artificial tears were instilled in the eye and the discomfort was scored by the participants on a 5 point scale during several time points up to 30 min after instillation. The same shampoos were tested in the SMI assay using the Stinging, Itching and Burning (SIB) protocol.
The purpose of this assay was to assess the stinging, itching or burning potential of the test item(s) defined below. Using the objective values obtained for the mucus production the stinging, itching or burning potential of the test item(s) can be estimated by means of the prediction model that is composed of four categories (no, mild, moderate and severe).
Test System: Slugs (Arion lusitanicus); 3 slugs per treatment group. The parental slugs of Arion lusitanicus collected in local gardens along Gent and Aalter (Belgium) are bred in the laboratory in an acclimatized room (18-20° C.). The slugs are housed in plastic containers and fed with lettuce, cucumber, carrots and commercial dog food.
Test Design: A single study was performed.
Slugs weighing between 3 and 6 g were isolated from the cultures two days before the start of an experiment. The body wall was inspected carefully for evidence of macroscopic injuries. […] The slugs were placed in a plastic box lined with paper towel moistened with PBS and were kept at 18-20° C. Daily the body wall of the slugs was wetted with 300 μl PBS using a micropipette.
An overview of this can be seen in FIG. 4.
The mucus production was expressed as % of the body weight.
Based on the endpoint of the SMI assay the stinging, itching or burning potency of the test item(s) was estimated using a classification prediction model.
The evaluation of the test results was based upon the total amount of mucus production during 3 repeated contact periods with the test item.
For each slug, the mucus production was expressed in % of the body weight by dividing the weight of the mucus produced during each contact period by the body weight of the slug before the start of that contact period. The total mucus was calculated for each slug and then the mean per treatment group was calculated. The classification prediction model shown in Table 1 was used to classify the compounds.

A further data set has as its system ovine nasal epithelium. Put plainly: Permeation through ovine nasal epithelium. The data set is classed as in vitro ADME. The conditions noted are these: for Cumulative amount (μg/cm^2): […] dosing solution in water, mean, n=5; for Permeation compared with the hydrochloride salt: across ovine nasal epithelium. From the text: The use of ovine nasal epithelium to study nasal drug absorption is a technique which is well known to the person skilled in the art.

Data set [3] is described as follows: Dynamic Vapour Sorption (DVS). It is filed as physicochemical. On the procedure: A modified DVS isotherm of lot 20/45/006-FP (the same crystalline version) was undertaken to examine material behaviour from 60% RH and above. […] This is to obtain in-depth profiling of the material towards humidity at these elevated levels.
Temperature and humidity are important factors in the processing and storage of pharmaceuticals. DVS provides a versatile and sensitive technique for evaluating the stability of pharmaceutical formulations.
The solution was clarified into a 500 ml round bottom flask, the round bottom flask was rotated in an acetone/dry ice bath to freeze the solution in a thin layer around the flask. The ice was sublimed in vacuo at ambient temperature affording a fluffy white solid. The solid was removed from the round bottom flask and transferred to the DVS instrument. During this transfer, the solid collapsed to a sticky gum.
The sample was examined by DVS from 40% RH and cycled between 0% RH and 90% RH twice.
XRPD was collected on a portion of the sample post-lyophoilisation and post-DVS examination.

A short description of data set [4]: Controlled cooling crystallisation: solubility in minimal solvent at 50 °C. The data set is classed as physicochemical. The conditions noted are these: 50° C. As for the experimental part: (detailed in the Table below). The solutions were clarified through a 0.45 μm Teflon syringe filter into pre-heated crystallisation tubes and cooled from 50° C. to −10° C. over 60 hours (1° C. Hr-1 cooling rate) and held at −10° C. for 50 hours (no agitation).
Solutions were clarified into crystallisation tubes at 50° C. and were cooled to −10° C. at a rate of 10° C.·hr-1, then equilibrated at −10° C. for 12 hours, then agitated at −10° C. at 400 rpm for 30 minutes which afforded a mobile suspension for all samples except Sample I which remained a solution. Further equilibration with agitation at −10° C. at 400 rpm for 3 hours afforded a thin suspension. All samples were isolated via isolute cartridge and air dried for 5 minutes before characterisation.

Data set [5] is described as follows: Stability of solid forms (Patterns A, B, C) open to atmosphere and in vacuo at 50 °C, by XRPD. It is filed as physicochemical. On the procedure: XRPD was performed regularly. DSC and 1H NMR spectroscopy were performed on samples where significant differences to the diffraction patterns were observed.
Setting [6] is: Example 8, Concentration (w/v) 10%.
[7] abbreviates: Concentration 10%, treatment time 45-min (3× 15-min).
The mark [8] stands for this setting: Table 2, stinging, itching and burning.
The mark [9] stands for this setting: Table 3, stinging, itching and burning.

Read-outs that look alike come from different tables or passages of the source.

These results are taken from patent US11518742B2 (priority 2020, dated 2022).

In the case of `COc1ccc2[nH]cc(CCN(C)C)c2c1.O=C(O)c1ccccc1` [5MeODMT benzoate 21-01-064 A], the Crystalline character entry in data set [1] (predominantly Pattern C lots) was “Pattern C”.
For the compound `CC(=O)[O-].[Na+]` [Sodium acetate, 10%, Sodium acetate], in data set [2] (in vivo), the “SIB Category” value was “Moderate (key: No: total MP < 5.5%; Mild: 5.5% ≤ total MP < 10%; Moderate: 10% ≤ total MP < 17.5%; Severe: total MP ≥ 17.5%)” and the “Total MP (% body weight)” value stood at 11.0 % body weight.
Turning to `COc1ccc2[nH]cc(CCN(C)C)c2c1.Cl` [5MeODMT HCl, 5MeODMT hydrochloride], in data set [2] (Example 8), the “Irritation score on SMI testing” value is given as “moderate”. For the same compound, the “Total MP (% body weight)” value in data set [2] (setting [6]) stood at 10.27 % body weight. The “Cumulative amount (μg/cm^2)” value with ovine nasal epithelium (Time 0.0 min) amounted to 0.00 μg/cm^2; with ovine nasal epithelium (Time 10.0 min) it was 0.33 μg/cm^2; in the data set on ovine nasal epithelium (Time 20.0 min), 3.30 μg/cm^2; in the data set on ovine nasal epithelium (Time 30.0 min) it was 8.26 μg/cm^2; in the data set with ovine nasal epithelium (Time 40.0 min), 13.33 μg/cm^2; in the data set on ovine nasal epithelium (Time 50.0 min) it was 18.77 μg/cm^2. In addition, the “Cumulative amount (μg/cm^2)” value in the data set with ovine nasal epithelium (Time 60.0 min) was 23.43 μg/cm^2; in the data set on ovine nasal epithelium (Time 75.0 min), 29.52 μg/cm^2. Further, in data set [3] (lot 20/20/126-FP), the “State of material upon completion of the DVS cycle” value was “completed deliquesced”. Moreover, the Moisture uptake result is given as “less than 0.3 % w/w” in data set [3] (lot 20/20/126-FP, 0-70% RH); “Approximately 23 % w/w” in data set [3] (lot 20/20/126-FP, 70-80% RH, first sorption cycle); “ca. 7%” in data set [3] (lot 20/45/006-FP, 75-80% RH); “ca. 40%” in data set [3] (lot 20/45/006-FP, 80-85% RH). Moreover, the “Retained mass above the minimum mass recorded at 0% RH” value in data set [3] (lot 20/20/126-FP, subsequent cycles) is 6-9 % w/w. In addition, the Further moisture uptake in data set [3] (lot 20/20/126-FP, up to and when held at 90% RH) is 20 % w/w. For the same compound, the Moisture increase result in data set [3] (lot 20/45/006-FP, 70-75% RH) is reported as “ca. 0.46 % w/w”. For the same compound, the “State of material post DVS analysis” value in data set [3] (lot 20/45/006-FP, likely above 80% RH) is given as “Complete deliquescence”.
For the compound `COc1ccc2[nH]cc(CCN(C)C)c2c1.O=C(O)c1ccccc1` [5MeODMT benzoate 21-01-064 D], in data set [1] (predominantly Pattern E lots), the Crystalline character entry is on record as “Pattern E”.
`O=P([O-])(O)O.[Na+]` [Sodium phosphate, 10% monobasic, Sodium phosphate monobasic]: in data set [2] (setting [7]), the “Total MP (% body weight)” value was found to be 15.2 % body weight. Also, the “SIB Category” value in data set [2] (setting [8]) and in data set [2] (setting [9]) was “Moderate (Moderate: 10% ≤ total MP < 17.5%)” throughout.
Turning to `COc1ccc2[nH]cc(CCN(C)C)c2c1.O=C(O)c1ccccc1` [5MeODMT benzoate], the “Irritation score on SMI testing” value in data set [2] (Example 8) is “mild”. Also, in data set [2] (setting [6]), the “Total MP (% body weight)” value turned out to be 7.38 % body weight. Besides, the “Cumulative amount (μg/cm^2)” value in the data set with ovine nasal epithelium (Time 0.0 min) is on record as 0.00 μg/cm^2; with ovine nasal epithelium (Time 10.0 min), 0.20 μg/cm^2; with ovine nasal epithelium (Time 20.0 min), 3.46 μg/cm^2; with ovine nasal epithelium (Time 30.0 min), 9.30 μg/cm^2; with ovine nasal epithelium (Time 40.0 min), 15.46 μg/cm^2; in the data set with ovine nasal epithelium (Time 50.0 min) it was 21.51 μg/cm^2. In addition, the figures for the “Cumulative amount (μg/cm^2)” value with ovine nasal epithelium (Time 60.0 min), with ovine nasal epithelium (Time 75.0 min) and in the data set with ovine nasal epithelium (Time 90.0 min) were 27.30 μg/cm^2, 33.34 μg/cm^2 and 39.77 μg/cm^2, respectively. Besides, the “Permeation compared with the hydrochloride salt” value was “higher permeation” in the data set on ovine nasal epithelium (listed as 5MeODMT benzoate salt), “higher permeation across the epithelium” in the data set on ovine nasal epithelium (listed as benzoate salt) and “higher permeation” with ovine nasal epithelium (listed as benzoate salt of 5MeODMT). For the same compound, in data set [3], the “Form/version modification on exposure to variable humidity” value was “no evidence of form/version modification”. In addition, the “Stability by DVS profile compared with the hydrochloride salt” value in data set [3] is listed as “significantly higher”. The same compound gave a Maximum water uptake/loss in data set [3] (from 0 to 90% humidity) of about 0.20%. Moreover, the “Solubility (mg · mL^1)” value was 31.25 mg · mL^1 in data set [4] (2-MeTHF); 31.25 mg · mL^1 in data set [4] (3-methyl-1-butanol); 62.5 mg · mL^1 in data set [4] (Acetone); 12.5 mg · mL^1 in data set [4] (Chlorobenzene); 42 mg · mL^1 in data set [4] (IPA); 62.5 mg · mL^1 in data set [4] (MEK). The “Solubility (mg · mL^1)” value in data set [4] (MeCN) turned out to be 50 mg · mL^1; in data set [4] (MeOH), 250 mg · mL^1; in data set [4] (MeOH:TBME (1:1)), 125 mg · mL^1; in data set [4] (Nitromethane), 125 mg · mL^1; in data set [4] (THF), 83 mg · mL^1; in data set [4] (iPrOAc) it was 12.5 mg · mL^1.
Take `COc1ccc2[nH]cc(CCN(C)C)c2c1.O=C(O)c1ccccc1` [21-01-071 C1, Pattern C]: in data set [5] (In vacuo at 50° C., Day 2), the “XRPD pattern throughout drying, Day 2” value was “B + A”. For the same compound, the “XRPD pattern throughout drying, Day 3” value in data set [5] (In vacuo at 50° C., Day 3) is “A + B”. For the same compound, in data set [5] (Open to atmosphere at 20 ± 2° C., Day 1), the “XRPD pattern throughout drying, Day 1” value was “C + B”. In data set [5] (Open to atmosphere at 20 ± 2° C., Day 4), the “XRPD pattern throughout drying, Day 4” value is given as “C + B”. For the same compound, in data set [5] (Open to atmosphere at 20 ± 2° C., Day 6), the “XRPD pattern throughout drying, Day 6” value is “C + B”. For the same compound, in data set [5] (Open to atmosphere at 20 ± 2° C., Day 8), the “XRPD pattern throughout drying, Day 8” value is on record as “C + B”. Also, in data set [5] (Open to atmosphere at 20 ± 2° C., Day 12), the “XRPD pattern throughout drying, Day 12” value is given as “C + B”.
Turning to `O=C([O-])/C=C/C(=O)[O-].[Na+].[Na+]` [Disodium fumarate, 10%, Disodium fumarate], the “Total MP (% body weight)” value in data set [2] (setting [7]) is 13.3 % body weight. Moreover, the “SIB Category” value in data set [2] (setting [8]) and in data set [2] (setting [9]) was “Moderate (Moderate: 10% ≤ total MP < 17.5%)” each time. Further, the “MP CP1 (%)” value in data set [2] (mucus produced, first 15-min contact period, mean ± SD, n = 3) is 5.0 ± 2.5%.
For `COc1ccc2[nH]cc(CCN(C)C)c2c1.O=C(O)c1ccccc1` [Pattern B form], the Solid form stability result in data set [5] (open to atmosphere at ca. 20° C., up to 12 days) is reported as “stable”.
Consider `O=C([O-])CC(O)(CC(=O)[O-])C(=O)[O-].[Na+].[Na+].[Na+]` [Sodium citrate, 10%, Sodium citrate], for which the “Total MP (% body weight)” value in data set [2] (setting [7]) is 12.5 % body weight. For the same compound, the “SIB Category” value in data set [2] (setting [8]) and in data set [2] (setting [9]) was “Moderate (Moderate: 10% ≤ total MP < 17.5%)” in each case.
